Test results from patent US20100099731A1, “Use of Endothelial Interrupters in the Treatment of Neurodegenerative Diseases” (Texas Tech University System, priority 2008, published 2010).
Entries after “also recorded” stand apart in the source; their conditions may differ.

Legend:
Rats [1] = experiment: Infusion of human apolipoprotein-E4 into rats; type: in vivo, rat; settings: 0.6 ng/hr, i.c.v., 56 days
[2] = system: AD transgenic mouse APPSWE 2576; experiment: Radial arm maze, AD transgenic mice treated with Sunitinib malate; type: in vivo; settings: Sunitinib malate 40 mg/kg daily in diet; vs untreated AD mice receiving vehicle; p<0.05
[3] = system: brain-derived endothelial cells (EC150); experiment: MMP-9 release from brain endothelial cells, indirect ELISA; type: cell-based; settings: 0-500 nM Sunitinib malate, 4 h; p<0.001 vs cells without drug
Endothelial cells [4] = experiment: Menadione-induced MMP-9 release from endothelial cells, indirect ELISA; type: cell-based
Endothelial cells [5] = experiment: Menadione-mediated TNF-α release from endothelial cells, indirect ELISA; type: cell-based; settings: 500 nM Sunitinib malate 4 h prior to (Pre), simultaneously (Co) or after (Post) 4 h menadione 25 μM
Rats [6] = experiment: Intracerebroventricular thrombin infusion in rats, radial eight-arm maze and neuropathology; type: in vivo, rat
Protocol: Thrombin, a mediator of neurotoxicity and memory impairment. Thrombin has been found in neuritic plaques in AD. Also, traumatic brain injury, where neurons are exposed to high thrombin levels is associated with an increased incidence of AD. Our objective was to determine the effects of thrombin administered in vivo on cognitive function and neuropathology. Rats were trained using a radial eight-arm maze and then thrombin (25 or 100 nM, […], 28 days) or vehicle was delivered via intra cerebroventricular infusion. […] Thrombin-induced changes in cognitive function and ventricular enlargement were inhibited by hirudin.

Rats [7] = experiment: Intracerebroventricular thrombin infusion in rats, apolipoprotein-E levels; type: in vivo, rat; settings: thrombin 100 nM, 0.25 microl/hr, 28 days, i.c.v.; vs vehicle, p<0.001
Description: Chronic thrombin exposure results in an increase in apolipoprotein-E levels. Studies have shown that individuals with both a history of traumatic brain injury and inheritance of apolipoprotein E-4 (ApoE4) allele are associated with a poor neurologic outcome and an increased risk for Alzheimer's disease. We assessed the hypothesis that thrombin released during brain injury causes an increase in apolipoprotein-E levels and such increase in the levels of apolipoprotein-E4 isoform may have amyloidogenic effects. Rats received either thrombin (100 nM, 0.25 microl/hr, 28 days) or vehicle via intracerebroventricular infusion. […] Such increase in Apolipoprotein-E4 isoform facilitates beta-amyloid deposition and cognitive deficits (Reference, item # 9).

[8] = system: cultured brain endothelial cells; experiment: TIMP expression in cultured brain endothelial cells; type: cell-based
Description: Angiogenic proteins are expressed by brain blood vessels in AD. Data are emerging to support the idea that mediators of angiogenesis are found in the AD brain. The objective of this study is to compare the expression of the angiogenic mediator's vascular endothelial growth factor (VEGF), angiopoietin, and matrix metalloproteinases (MMPs) in the microcirculation of AD patients and age-matched controls. […] AD-derived microvessels also release higher levels of MMP-2 and MMP-9 compared to controls. […] In this regard we find high levels of the tissue inhibitor of matrix metalloproteinases-1 (TIMP-1) in AD, but not control vessels.

[9] = system: cultured brain endothelial cells; experiment: HIF1-α expression in cultured brain endothelial cells; type: cell-based
Description: Thrombin and inflammatory proteins are elevated in Alzheimer's disease microvessels: Implications for disease pathogenesis. […] The objective of this study is to determine whether levels of neurotoxic (thrombin) and inflammatory proteins (IL-8; integrins αvβ3 and αvβ5) are altered in microvessels isolated from AD patients compared to levels in vessels obtained from non-demented age-matched controls. We also evaluate expression, in AD and control microvessels, of the transcription factor hypoxiainducible factor 1-α (HIF1-α), which regulates pro-inflammatory gene expression, and the regulation of HIF1-α expression by thrombin in cultured brain endothelial cells.

[10] = system: Rat neuronal cortical cell cultures; settings: thrombin 100 nM or SNP 10 μM, 24 h
thrombin = thrombin (Homo sapiens, UniProt P00734); experiment: ApoE4 fragment generation by endothelial cell conditioned media, western blot; type: biochemical; settings: conditioned medium incubated with apoE4 for 24 h
Protocol: Injured endothelial cells release thrombin and generate neurotoxic apolipoprotein E fragments. The objective of this study was to determine if injured brain endothelial cells could be a source of thrombin and neurotoxic apoE fragments. Brain endothelial cells were injured by oxidant and/or inflammatory stress. This was accomplished by incubating cultured endothelial cells with either, sodium nitroprusside (SNP), inflammatory cocktail (LPS, […], IL-6, IFN-γ, TNFα) or both for 24 h. The conditioned medium was then (a) analyzed for thrombin using a chromogenic thrombin activity assay, (b) incubated with apoE4 for 24 h and then analyzed by western blot for detection of apoE4 fragments, or (c) incubated with apoE4 and added to neuronal cultures for 24 h. […] This pattern was consistent with that observed using purified thrombin and was inhibited by the thrombin inhibitor hiruidin.

[11] = system: cultured brain endothelial cells; experiment: IL-1β and TNFα expression in brain endothelial cells treated with TGF-β, ELISA and western blot; type: cell-based; settings: vs untreated endothelial cells
Description: Cerebrovascular TGF-β contributes to inflammation in the AD brain. TGF-β plays a central role in the response of the brain to injury and is increased in the brain in AD. In this study, we determined whether expression of TGF-β was abnormal in the microvasculature in AD and whether TGF-β affected vascular production of pro-inflammatory cytokines, IL-1β and TNFα. Results from western blot analysis and ELISA indicated a higher level of TGF-β in AD vessels compared to controls. To determine whether TGF-β affects vascular release of inflammatory factors, cultured brain endothelial cells were treated with TGF-β and levels of IL-1β and TNFα determined. […] Studies have shown that TGF-β mediated signaling is critical to controlling the “angiogenic switch”.

[12] = approved treatments for AD; cited from earlier work
[13] = In vivo cognition with acetaminophen; settings: in vivo work
[14] = system: rat brain endothelial cells; experiment: Cell viability (MTT) of brain endothelial cells challenged with menadione; settings: acetaminophen pretreatment, then 25 μM menadione 2-3 h; p<0.001 vs cells without acetaminophen
Protocol: Cell viability was determined with MTT assay. Number of viable cells in untreated cells (control) was defined as 100%. Data are mean±SD of 3 separate experiments.

[15] = 100 nM thrombin, 0.25 μg/h, 28 days, intra cerebroventricular infusion
[16] = rats, thrombin intra cerebroventricular infusion

Compound: ApoE4: human apolipoprotein-E4 isoform infused i.c.v. into rats
- beta-amyloid deposition and GFAP-positive astrocytes (Rats [1]): beta-amyloid deposition and increased the number of GFAP-positive astrocytes
- spatial memory (Rats [1]): significant spatial memory deficits

Compound: CCN(CC)CCNC(=O)c1c(C)[nH]c(/C=C2\C(=O)Nc3ccc(F)cc32)c1C [Sunitinib malate, Butanedioic acid, hydroxy-, (2S)-, compound with N[2-(diethylamino)ethyl]-5-[(Z)-(5-fluoro-1,2-dihydro-2-oxo-3H-indol-3-ylidine)methyl]-2,4-dimethyl-1H-pyrrole-3-carboxamide (1:1)]
- cognitive performance: total number of arm entries to complete the 8 arm radial arm maze [2]: progressively require fewer arm entries to complete an 8 arm radial arm maze; also recorded: perform significantly (p<0.05) better than AD mice not receiving the drug
- release of matrix metalloproteinase-9 (MMP-9) [3]: significantly decreased release of matrix metalloproteinase-9 (MMP-9)
- menadione-induced release of MMP-9 (Endothelial cells [4]; 500 nM Sunitinib malate 4 h prior to (Pre), simultaneously (Co) or after (Post) 4 h menadione 25 μM): decreased release of both MMP-9; also recorded: significantly decreased release of MMP-9
- menadione-mediated release of TNF-α (Endothelial cells [5]): decreased release of both MMP-9 (FIG. 4) and TNFα; also recorded: decreased menadione-mediated release of TNF-α

Compound: thrombin
- cognitive function (Rats [6]; [15]): cognitive impairments including deficits in reference memory and an increase in task latency
- neuropathology (Rats [6]; [15]): enlargement of cerebral ventricles, an increased number of TUNEL-positive cells, astrogliosis, and an increase in the immunoreactivity for phosphorylated neurofilament, and apolipoprotein-E fragments
- apolipoprotein-E levels in hippocampus (Rats [7]): increased apolipoprotein-E levels in hippocampus
- TIMP-1 expression [8]: up regulation of TIMP-1
- HIF1-alpha expression [9]: increased expression of HIF1-alpha
- cyclin D1 mRNA expression [10]: increase in cyclin D1 expression
- neuronal apoptosis (nucleosome ELISA) [10]: evoke neuronal cell death

Compound: hirudin
- generation of apoE4 fragments (20-29 kDa) by endothelial cell conditioned media (thrombin): inhibited
- thrombin-induced changes in cognitive function (Rats [6]; [16]): inhibited
- thrombin-induced ventricular enlargement (Rats [6]; [16]): inhibited

Compound: TGF-β
- endothelial expression of IL-1β and TNFα [11]: robust endothelial expression of these factors

Compound: CC1=CC(=O)c2ccccc2C1=O [menadione]
- release of MMP-9 and TNFα (Endothelial cells [4]; brain endothelial cells exposed to menadione): increased release of both MMP-9 and the inflammatory cytokine TNFα

Compound: CC12CC3CC(C)(C1)CC(N)(C3)C2 [Memantine]
- Side Effects [12]: Headache, constipation.

Compound: CC(=O)Nc1ccc(O)cc1 [acetaminophen, 4′-hydroxyacetanilide]
- cognition [13]: improved cognition
- cell survival (MTT) [14]: significant increase in cell survival; also recorded: Cell survival increases significantly
